In patent US5591743A, “3,5-dioxo-(2H,4H)-1,2,4-triazine derivatives as 5HT1A ligands” (Pierre Fabre Medicament, priority 1993, dated 1997):
Where two headings read alike, the source gives them in different places.

Legend:
[1] = molecular target: T1, serotoninergic receptors of type 5-HT1A (Rattus norvegicus, UniProt P19327); experiment: 5-HT syndrome (flat body posture, lower-lip retraction, fore-paw treading); format: in vivo; conditions: ip, male Sprague-Dawley rat, i.p.
T1 construct: carried out on the male rat (Sprague-Dawley); from tissue; host or cells: whole living male Sprague-Dawley rat (in vivo test)
T1 sequence (P19327 1-422): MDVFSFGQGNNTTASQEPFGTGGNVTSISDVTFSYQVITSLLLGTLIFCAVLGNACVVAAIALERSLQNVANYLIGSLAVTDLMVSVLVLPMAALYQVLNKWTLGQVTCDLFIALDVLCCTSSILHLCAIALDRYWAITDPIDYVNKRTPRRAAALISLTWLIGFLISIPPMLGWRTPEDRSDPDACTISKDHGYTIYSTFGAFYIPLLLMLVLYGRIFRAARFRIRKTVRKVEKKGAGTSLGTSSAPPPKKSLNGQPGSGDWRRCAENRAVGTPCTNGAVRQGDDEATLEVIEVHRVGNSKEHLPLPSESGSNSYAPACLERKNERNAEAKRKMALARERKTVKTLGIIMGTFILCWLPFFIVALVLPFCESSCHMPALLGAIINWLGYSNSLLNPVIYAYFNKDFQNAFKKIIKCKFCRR
Experimental: The experiments of the evaluation of the 5-HT syndrome are carried out on the male rat (Sprague-Dawley) by the method described by F. C. Colpaert et al. (Drug. Dev. Res. 26:21-48, 1992).

[2] = molecular target: T2, 5-HT1A receptor (Rattus norvegicus, UniProt P19327); experiment: Affinity for the receptor 5-HT1A: displacement of [3H]8-OH-DPAT in rat cerebral cortex; format: binding; conditions: [3H]8-OH-DPAT 0.2 nM, 23° C., 30 minutes, average of 3 to 5 experiments, read-out: pKi (affinity for the receptor 5-HT1A) (converted)
T2 construct: The brain is dissected and the cortex is homogenized in 20 volumes of Tris-HCl buffer; from tissue; host or cells: rat cerebral cortex homogenate
T2 sequence (P19327 1-422): T1 sequence (P19327 1-422)
Experimental: Thus, they were the object of a study relating to their affinity for serotoninergic receptors such as 5-HT1A.
The study of the bonding to the receptor 5-HT1A is carried out in the manner described by Sleight and Peroutka (Naunyn-Schmiedebergs Arch. Pharmacol. 343:106-116, 1991). For these experiments, rat cerebral cortices are used. The brain is dissected and the cortex is homogenized in 20 volumes of Tris-HCl buffer (50 mM, pH 7.4 at 25° C.) kept at 4° C. The homogenate is centrifuged at 39000 g for 10 minutes, the final product is suspended in the same volume of buffer and centrifuged again. After being again placed in suspension under the same conditions, the homogenate is incubated for 10 minutes at 37° C. and then centrifuged again. The final product is suspended in 80 volumes of reaction buffer containing pargyline (10^- 5M), CaCl2 (4 mM) and ascorbic acid (0.1%) in Tris-HCl (50 mM, pH 7.4 at 25° C.). The final concentration of tissue in the incubation medium is 10 mg/tube.
In the saturation experiments, the reaction tubes contain 0.1 ml of different concentrations of [^3 H]8--OH--DPAT (between 0.06 and 8 nM), 0.1 ml of reaction buffer 5-HT (10^-5 M, in order to determine the non-specific bond) and 0.8 ml of tissue.
The displacement experiments are carried out in the manner described by Sleight and Peroutka (Naunyn-Schmiedebergs Arch. Pharmacol. 343:106-116, 1991). All the dilutions of products to be studied are prepared in the reaction buffer. The reaction tubes contain 0.1 ml of [^3 H]8-OH-DPAT (0.2 nM), 0.1 ml of product to be tested 6-7 concentrations (successive dilutions to 1/10) and 0.8 ml of tissue. […] The radioactivity collected on the filter is analyzed in liquid scintillation by adding 4 ml of scintillating liquid (Emulsifier Safe, Packard). All the experiments are carried out in triplicate and repeated at least 3 times.
The dissociation constant (KD) and the maximum number of bond sites (Bmax) for the radioligand are estimated on the basis of the saturation experiments using the non-linear regression program EBDA/LIGAND (Biosoft) (Munson and Rodbard: Anal. Biochem. 107:220-239, 1980). The affinity constants (Ki) of the reference products are estimated on the basis of the displacement experiments using the EBDA/LIGAND non-linear regression program. […] The data of the displacement experiments are analyzed with the one-site and two-site models respectively and the calculated F makes it possible to determine whether the two-site model is more representative of the data obtained than the one-site model. The values of pKi are given in the form of the average ±SEM of 3 to 5 experiments.

[3] = FBP, read-out: ED50 FBP (flat body posture)
[4] = FPT, read-out: ED50 FPT (reciprocal fore-paw treading)
[5] = LLR, read-out: ED50 LLR (lower-lip retraction)

Row | Compound | ED50 [1, 3] | ED50 [1, 4] | ED50 [1, 5] | Ki [2]
1 | O=C1CC2(CCCC2)CC(=O)N1CCCCN1CCN(c2ncccn2)CC1 [Buspirone, reference compound] | 5 mg/kg | > 40 mg/kg | 1.25 mg/kg | –
2 | Cn1nc(NCCCCN2CCN(c3cccc(Cl)c3)CC2)c(=O)n(C)c1=O [Compound 2, 2,4-dimethyl-3,5-dioxo-(2H,4H)-6-(4(4-(3-chlorophenyl)piperazino)butylamino)-1,2,4-triazine] | 0.31 mg/kg | 40 mg/kg | 0.31 mg/kg | 0.398 nM
3 | Cn1nc(NCCCN2CCN(c3cccc(C(F)(F)F)c3)CC2)c(=O)n(C)c1=O [Compound 6, 2,4-dimethyl-3,5-dioxo-(2H,4H)-6-(3-(4-(3-trifluoromethylphenyl)piperazino)propylamino)-1,2,4-triazine] | – | – | – | 16.2 nM
4 | CCCCn1c(=O)[nH]nc(NCCCCN2CCN(c3cccc(C(F)(F)F)c3)CC2)c1=O [Compound 11, 4-butyl-3,5-dioxo-(2H, 4H)-6-(4-(4-(3-trifluoromethylphenyl)piperazino)butylamino)-1,2,4-triazine] | – | – | – | 12.6 nM

Now from value to compound:

Row | ED50 [1, 3] | ED50 [1, 4] | ED50 [1, 5] | Ki [2] | Compound
5 | 0.31 mg/kg | 0.31 mg/kg | 0.31 mg/kg | 0.316 nM | Cn1nc(NCCCCN2CCN(c3cccc(C(F)(F)F)c3)CC2)c(=O)n(C)c1=O [Compound 1, 2,4-dimethyl-3,5-dioxo-(2H, 4H)-6-(4-(4-(3-trifluoromethylphenyl)piperazino)butylamino)-1,2,4-triazine]
6 | – | – | – | 0.617 nM | COc1ccccc1N1CCN(CCCCNc2nn(C)c(=O)n(C)c2=O)CC1 [Compound 3, 2,4-dimethyl-3,5-dioxo-(2H,4H)-6-(4-(4-(2-methoxyphenyl)piperazino)butylamino)-1,2,4-triazine]
7 | – | – | – | 2.69 nM | Cn1nc(NCCCCNCC2COc3ccccc3O2)c(=O)n(C)c1=O (stereo not shown) [Compound 9, 2,4-dimethyl-3,5-dioxo-(2H,4H)-6-(4-(1,4-benzodioxan-2 ylmethylamino)butylamino)-1,2,4-triazine]
8 | – | – | – | 3.8 nM | Cn1nc(NCCCNCC2COc3ccccc3O2)c(=O)n(C)c1=O (stereo not shown) [Compound 10, 2,4-dimethyl-3,5-dioxo-(2H, 4H)-6-(3-(1,4-benzodioxan-2 ylmethylamino)propylamino)-1,2,4-triazine]
